This is an account of results in US6300364A, “Medicinal compositions with cholesterol-lowering effect” (priority 1997, dated 2001).

Molecules are shown by their SMILES. Read-outs that look alike come from different tables or passages of the source.

In one assay the target is T1, PPARγ (Mus musculus, UniProt P37238).
T1 sequence (P37238 202-505): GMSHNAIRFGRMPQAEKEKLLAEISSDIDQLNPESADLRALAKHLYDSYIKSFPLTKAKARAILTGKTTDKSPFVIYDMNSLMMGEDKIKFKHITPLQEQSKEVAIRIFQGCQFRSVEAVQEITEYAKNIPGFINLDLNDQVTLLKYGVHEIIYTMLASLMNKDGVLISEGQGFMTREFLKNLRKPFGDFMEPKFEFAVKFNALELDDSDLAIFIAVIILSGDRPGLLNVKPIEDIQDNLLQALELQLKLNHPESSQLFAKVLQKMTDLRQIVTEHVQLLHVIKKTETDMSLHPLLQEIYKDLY
As to the kind of experiment: GAL4-PPARγ reporter (luciferase) activation assay in HepG2 cells. The note with it: for fold induction at 100 µM: HepG2, 48 h, read-out: Relative activity (control = 1) PPARγ; for PPARγ-activating effect (in words): conclusion from Table 1. From the text:
To identify a compound having a PPARδ and PPARγ ligand effect, fused gene expression vectors of the DNA-binding domain (GAL4-DNA bindgn domain, GAL4-DBD) of a yeast transcription activated protein and the PPAR ligand binding domains (LBDs) were constructed. Three activation vectors thus constructed were named GAL-PPARα, GAL-PPARδ and GAL-PPARγ respectively.
i) Ligand binding domains (PPAR-LBDs) of mouse peroxisome-proliferator-activated receptors (mPPARα, mPPARδ and mPPARγ) were each amplified by PCR (polymerase chain reaction). As a template employed in the amplification, total RNA was prepared from a fat tissue around mouse epididymis with the use of a total RNA extracting reagent Isogen (manufactured by Nippon Gene) in accordance with the attached manufacturer's instruction. […] PCR was performed by using GeneAmp PCR System Model 9600.
ii) Into one side of each primer thus synthesized, a recognition sequence of a restriction enzyme SmaI or BamHI had been preliminarily inserted so that the primer could be cleaved with the restriction enzyme. After the amplification, the PCR fragment was ligated with pGBT9 DNA-Binding Domain Vector (5.5 kb, having the GAL4-DBD domain and an ampicillin resistance gene Amp^R sequence, manufactured by Clontech) and the vector thus formed was named pGBT9-PPAR-LBD.
iii) A fused gene domain (GAL4-DBD+PPAR-LBD) wherein GAL4-DBD contained in pGBT9-PPAR-LBD was legated to PPARLBD was excised by using HindIII/SalI and transferred into the multiple cloning site (MCS) of an expression vector pZeoSV (3.5 kb, having zeocin resistance gene Zeo^R sequence, manufactured by Clontech) by using HindIII/Xhol. The thus obtained chimeric expression vectors of GAL4-DBD ad PPAR-LBD were named respectively GAL-PPARα, GAL-PPARδ and GAL-PPARγ.
i) DNA sequences were synthesized by using a DNA synthesizer (Beckman DNA Synthesizer oligo1000M, manufactured by Beckman) by repeating the GAL4-DBD binding sequence (GAL4 responsive element, RE or UASG) once (RE×1) or thrice (RE×3). Then appropriate restriction enzyme cites were introduced into both ends and these sequences were ligated together to give a 4-repetition sequence fragment (RE×4). Further, an 8-repetition sequence fragment (RE×8) was formed by using the same.
ii) A DNA sequence wherein TATA box was ligated to the above GAL4 responsive sequence (RE×8) was formed by PCR and then inserted into the 5'-side upstream of the luciferase gene sequence (RE-LUC) in a vector for luciferae assay system (Pica Gene Vector-2, (PGV-B2), Toyo Ink Mfg.). […] RE-LUC containing RE×8 was transferred into cells together with GAL-PPARγ. Then CS-045 (troglitazone), i.e., the ligand of PPARγ was added.
By using the activation vectors and reporter vectors constructed in the above (1) and (2), the PPAR activation effect of a compound was measured by a method involving the following three steps: i) Cotransfection of construction into a host; ii) treatment of cells by adding the compound; and iii) assay of the reporter gene expression level.
HepG2 cells (American Type Culture Collection, Maryland, USA) was inoculated into a collagen type IV treated 96-well plate (manufactured by Iwaki) at a cell density of 1×10^4 /well and incubated for 2 days in the presence of Dulbecco's modified Eagle medium containing 10% of fetal calf serum (FCS) (200 μl/well, FCS-DMEM (GIBCO BRL)). Next, the cells were washed with 100 μl/well of a cell incubation medium (OPTI-MEM I Reduced Serum Medium, manufactured by GIBCO BRL) maintained at 37° C.

Assay [1] has as its system PPARα. The conditions noted are these: literature report; cited from earlier work.
In assay [2] the test system is PPARδ. The note with it: literature report; cited from earlier work.
In assay [3] the target is T2, PPARα (Mus musculus, UniProt P23204).
T2 construct: mPPARα (Gly^165 -Tyr^467); expressed in transfected cells; host or cells: HepG2
T2 sequence (P23204 165-468 limits assumed): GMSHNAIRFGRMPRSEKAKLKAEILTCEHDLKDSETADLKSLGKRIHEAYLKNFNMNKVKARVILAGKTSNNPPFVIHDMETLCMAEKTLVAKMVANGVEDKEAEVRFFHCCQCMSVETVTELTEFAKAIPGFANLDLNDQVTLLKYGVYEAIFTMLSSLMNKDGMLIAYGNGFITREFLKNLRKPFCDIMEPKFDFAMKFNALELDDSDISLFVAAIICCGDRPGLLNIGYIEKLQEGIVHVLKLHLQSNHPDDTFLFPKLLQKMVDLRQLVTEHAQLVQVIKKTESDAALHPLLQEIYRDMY
As to the kind of experiment: GAL4-PPARα reporter (luciferase) activation assay in HepG2 cells. It counts as cell-based. The conditions noted are these: read-out: Relative activity (control = 1) PPARα.

Assay [4] deals with T3, PPARδ (Mus musculus, UniProt P35396).
T3 construct: mPPARδ (Met^137 -Tyr^439); expressed in transfected cells; host or cells: HepG2
T3 sequence (P35396 137-440 limits assumed): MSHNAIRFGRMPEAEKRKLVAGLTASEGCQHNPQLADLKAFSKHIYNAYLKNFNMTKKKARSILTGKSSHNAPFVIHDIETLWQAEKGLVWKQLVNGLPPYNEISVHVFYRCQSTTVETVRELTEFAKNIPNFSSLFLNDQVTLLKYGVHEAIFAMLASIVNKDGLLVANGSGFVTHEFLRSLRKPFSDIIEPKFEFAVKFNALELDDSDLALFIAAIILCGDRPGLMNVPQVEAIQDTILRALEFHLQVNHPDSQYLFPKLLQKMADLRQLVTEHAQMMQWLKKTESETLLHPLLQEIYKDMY
As to the kind of experiment: GAL4-PPARδ reporter (luciferase) activation assay in HepG2 cells. It counts as cell-based. The note with it: for PPARδ-activating effect (in words): conclusion from Table 1; for fold induction at 100 µM: read-out: Relative activity (control = 1) PPARδ.

The nature of assay [5]: Test for evaluating cholesterol-lowering effect by using rhesus monkey. It counts as in vivo. The note with it: for Decrease in LDL-C (LDL-cholesterol level) / Decrease in TC (serum total cholesterol level): male rhesus monkeys, 30 mg/kg/day in feed, 2 weeks, compared with data before the administration; for Effect of lowering serum total cholesterol level, in particular LDL-cholesterol level (in words): rhesus monkeys, conclusion from Table 2. The procedure: A test for evaluating cholesterol-lowering effect was performed by using rhesus monkeys in accordance with a method described in Br. J. Pharmacol., 118, p.174-178, 1996.
i) Male rhesus monkeys weighing about 4.5 to 5 kg (Purchased from Hamri) were fed by giving twice a day 50 g/day of a solid feed, which had been prepared by adding 50 ml of water and vitamin C (5 mg/kg/day, manufactured by Sigma) to 50 g of Purina powdery feed (Code #5408, manufactured by Oriental Yeast) and solidifying the mixture, and about 100 g of banana.
ii) The monkeys having been accustomed to the control feed were divided into a control group having 4 animals and test groups each having 3 animals. The animals of the […] were fed with the control feed. On the other hand, the animals of one test group were fed with a composition feed containing 30 mg/kg/day of YM-16683, while those of the other test group were fed with a composition feed containing 30 mg/kg/day of the compound of Production Example 1, each twice a day. To avoid unfinished feeding, banana was given to the animals after taking 50 g of each feed.
iii) The groups were fed with respective feeds for 2 weeks. About 16 hours before the day before the final administration, the animals were fasted and the blood samples were collected from thigh. After measuring body weight, blood collection was performed twice, i.e., before and after the administration of the test compound. Each blood sample thus collected was heparinized and serum was separated therefrom. Next, the total cholesterol level (TC) and LDL-cholesterol level (LDL-C) were measured by the enzymatic method with the use of an automatic analyzer (Model 736-10, Hitachi) (Table 2).
Decrease was calculated by comparing the data before the administration.

For assay [6] the following is noted: cited from earlier work; for Decrease in serum cholesterol level: normal subjects.
The conditions of assay [7]: cited from earlier work.
[8] abbreviates: test compound 10^-4 M, HepG2 cells, 48 hours, luciferase activity corrected by β-galactosidase, DMSO control = 1.0.

As for `Cc1cccc(Nc2cc(Cl)nc(SCC(=O)O)n2)c1C` [Wy 14,643, prinixic acid], the fold induction at 100 µM on PPARγ is 1.8. For the same compound, the “PPARα activation / ligand activity (in words)” value in the assay with PPARα [1] was “ligand specific to PPARα”.
Regarding `CCCCC[C@H](O)/C=C/[C@@H]1[C@H]2C/C(=C/CCCC(=O)O)O[C@H]2C[C@H]1O` [PGI2, prostacyclin], the “PPARα activation / ligand activity (in words)” value in the assay with PPARα [1] is “activates neither PPARα nor PPARδ”. For the same compound, in the assay on PPARδ [2], the “PPARδ activation / ligand activity (in words)” value is listed as “activates neither PPARα nor PPARδ”.
On to `CCCc1c(OCCCSc2nnc(SCC(=O)O)s2)ccc(C(C)=O)c1O` [YM-16638], for which the fold induction at 100 µM on PPARα [3] (setting [8]) was 1. In addition, the “PPARδ-activating effect (in words)” value on PPARδ [4] was “effect of activating PPARδ and PPARγ”. For the same compound, on PPARδ [4] (setting [8]), the fold induction at 100 µM worked out at 46.2. Besides, at PPARγ, the fold induction at 100 µM amounted to 2.5; the “PPARγ-activating effect (in words)” value was “effect of activating PPARδ and PPARγ”. In addition, in assay [5], the “Decrease in LDL-C (LDL-cholesterol level)” value amounted to 14%; the “Decrease in TC (serum total cholesterol level)” value amounted to 33%; the “Effect of lowering serum total cholesterol level, in particular LDL-cholesterol level (in words)” value was “excellent effect of lowering serum total cholesterol level, in particular, LDL-cholesterol level”. In assay [6] (humans), the “Effect of lowering serum triglyceride level (in words)” value is “only a weak effect”. Moreover, in assay [6] (administration dose 60 mg), the “Decrease in serum cholesterol level” value is “about 26%”. In assay [6] (administration dose 120 mg), the “Decrease in serum cholesterol level” value is reported as approximately 41%.
As for `CCCCC[C@H](O)/C=C/[C@@H]1[C@H]2C/C(=C/CCCC(=O)O)C[C@H]2C[C@H]1O` [cPGI2, carbaprostacyclin], the fold induction at 100 µM at PPARα [3] (HepG2, 48 h) came out at 15.2; on PPARδ [4] (HepG2, 48 h), 34; on PPARγ it was 1.6. For the same compound, in the assay on PPARα [1], the “PPARα activation / ligand activity (in words)” value was “has activities of both of PPARα and PPARδ ligands”. Also, the “PPARδ activation / ligand activity (in words)” value in the assay on PPARδ [2] was “has activities of both of PPARα and PPARδ ligands”.
For the compound `CCc1ccc(CCOc2ccc(CC3SC(=O)NC3=O)cc2)nc1` (centres unmarked) [Pioglitazone], the fold induction at 100 µM on PPARα [3] (HepG2, 48 h) was 1.5; on PPARδ [4] (HepG2, 48 h) it was 1.4.
As for `CCCc1c(OCCCOc2ccc(CC(=O)O)cc2)ccc(C(C)=O)c1O` [Production Example 1, p-[3-(4-acetyl-3-hydroxy-2-propylphenoxy)propoxy]phenylacetic acid], the fold induction at 100 µM at PPARα [3] (setting [8]) is 0.6. Moreover, the “PPARδ-activating effect (in words)” value at PPARδ [4] is “effect of activating PPARδ and PPARγ”. For the same compound, the fold induction at 100 µM at PPARδ [4] (setting [8]) stood at 83.5. Also, at PPARγ, the fold induction at 100 µM worked out at 10.3; the “PPARγ-activating effect (in words)” value was “effect of activating PPARδ and PPARγ”. In assay [5], the “Decrease in LDL-C (LDL-cholesterol level)” value worked out at 34%; the “Decrease in TC (serum total cholesterol level)” value came to 29%; the “Effect of lowering serum total cholesterol level, in particular LDL-cholesterol level (in words)” value is “excellent effect of lowering serum total cholesterol level, in particular, LDL-cholesterol level”.
For the compound `CCOC(=O)C(C)(C)Oc1ccc(Cl)cc1` [Clofibrate], the fold induction at 100 µM at PPARα [3] (HepG2, 48 h) turned out to be 2.2; on PPARδ [4] (HepG2, 48 h), 1.3; at PPARγ it was 0.9.
For the compound `CCC(C)(C)C(=O)O[C@H]1C[C@@H](C)C=C2C=C[C@H](C)[C@H](CC[C@@H]3C[C@@H](O)CC(=O)O3)[C@H]21` [simvastatin], the “Decrease in serum cholesterol level” value in assay [7] (patient with hyperlipemia, total serum cholesterol level of 220 mg/dl or above) is on record as “about 20%”; in assay [7] (phase I clinical test, normal subjects, about 1 week after the initiation of the administration), “about 20%”.
